Measurements: patent publication US4087461A, “Anti-androgenic steroids” (The Johns Hopkins University, priority 1977, dated 1978)
pKi: −log10 of the molar value. “Also recorded” adds a separate entry of the source.

Key:
[1] = biological target: T1, Δ^5 -3-ketosteroid isomerase (EC 5.3.3.1) (Comamonas testosteroni, UniProt P00947); test: irreversible inactivation of crystalline purified bacterial Δ^5-3-ketosteroid isomerase by acetylenic steroids (Kitz and Wilson kinetic analysis); type: biochemical, Pseudomonas testosteroni
T1 sequence (P00947 whole entry, stated change not applied): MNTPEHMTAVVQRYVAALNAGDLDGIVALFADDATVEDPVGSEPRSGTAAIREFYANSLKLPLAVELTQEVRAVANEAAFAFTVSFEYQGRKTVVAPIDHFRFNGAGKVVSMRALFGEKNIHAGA
Protocol: The inactivation is progressive with time, and half-lives in the range of 150-1320 sec are observed at concentrations of 20-200 μM of the two inhibitors. The enzymatic activities of control vessels which received only equivalent volumes of 1,4-dioxane remained constant at initial activities.
The initial rates of inactivation of the isomerase by (1) and (2) can be analyzed by the method of Kitz and Wilson^8 since very satisfactory pseudo-first-order behavior was observed. It is assumed that [I] (inhibitor) >> [E] (enzyme), that [E.I] (the reversible enzyme-inhibitorcomplex) is at all times in equilibrium with enzyme and inhibitor, and that ^k cat >> ^k inh. The scheme for the formation of EI' (the irreversible enzyme-inhibitor derivative) may then be represented as follows.
If the enzyme-inhibitor solution is diluted extensively prior to assay, the active enzyme (ε) = [E] + [E.I]. Then -d(ε)/dt = k3 [E.I.], and K1 = ([E][I])/[EI]. Thus [formula] where Et = total amount of enzyme in system.
If one defines [formula] Consequently double reciprocal plots of kapp with respect to [I] should be linear, with slopes and intercepts permitting the determination of K1 and k3 where the latter is the overall rate constant for the irreversible inhibition process.
From plots of 1n ε (residual enzymatic activity) vs. time, kapp has been determined at five inhibitor concentrations for both compounds 1 and 2, i.e. estryne and pregnyne. Strict linearity of the semilogarithmic plots has been observed in all cases, over greater than two half-lives. A plot of 1/kapp vs. 1/[I] was linear and gave k3 and K1 (FIG. 1). For compound 1, K1 = 56 μM and k3 = 1.98 × 10^-3 sec^-1, and for compound 2, K1 = 32 μM and k3 = 4.10 × 10^-3 sec^-1.
Studies were performed using crystalline purified bacterial Δ^5 -3-ketosteroid isomerase (from P. testosteroni), under pseudo first order conditions using the kinetic analysis of R. Kitz and I. B. Wilson [J. Biol. Chem., 237, 3245 (1964)].

[2] = test system: endogenous androgen biosynthesis; test: study in intact male rats: weights of sex accessory tissue and other organs; type: in vivo, male Sprague-Dawley rats; conditions: 7 days; for Adrenal weight (± Sem): intact control 27 ± 2; for Dorsal Lateral Prostate weight (± Sem): intact control 244 ± 12; for Seminal Vesicles weight (± Sem): intact control 394 ± 12; for Ventral Prostate weight (± Sem): intact control 421 ± 15; for Kidney weight (± Sem): intact control 1260 ± 63; for Testis weight (± Sem): intact control 1650 ± 38
Protocol: Studies with intact male Sprague-Dawley rats (300g body weight) are illustrated for compounds (1) and (2).
Similarly, compound (2), […] rats at a dosage of 20mg per kilo for 7 days produced 20% reduction in weight of the ventral prostate and 28% reduction of the dorsal lateral prostate.
The following data illustrates the inhibiting effect of estryne and pregnyne on Δ^5 -3-ketosteroid isomerase (EC 5.3.3.1) as evidenced by a depression of the wet weight of the sex accessory tissue in the mature male rat treated with the estryne and pregnyne.
A. Male rats were used to assess the effect of estryne on endogenous androgen biosynthesis at varying doses (1-20 mg/kg body weight). […] On the eighth day the animals were sacrificed and the ventral prostate, dorsal lateral prostate, seminal vesicles, testes, kidneys, and adrenals were removed and weighed. Samples of each tissue were preserved in 10% buffered formalin for histological examination.
B. Male rats were treated with 19-norpregnyne by a regimen exactly as described for the estryne.

[3] = biological target: T2, cytosol androgen receptor (prostate androgen binding protein) (Rattus norvegicus, UniProt P15207); test: inhibition of nuclear uptake of ^3H-dihydrotestosterone in ventral prostate minces (binding to the prostatic androgen receptor)
T2 construct: freshly minced ventral prostate tissue obtained from rats castrated 24 hours before sacrifice; from tissue; host or cells: ventral prostate minces of castrated rats
T2 sequence (P15207 1-902): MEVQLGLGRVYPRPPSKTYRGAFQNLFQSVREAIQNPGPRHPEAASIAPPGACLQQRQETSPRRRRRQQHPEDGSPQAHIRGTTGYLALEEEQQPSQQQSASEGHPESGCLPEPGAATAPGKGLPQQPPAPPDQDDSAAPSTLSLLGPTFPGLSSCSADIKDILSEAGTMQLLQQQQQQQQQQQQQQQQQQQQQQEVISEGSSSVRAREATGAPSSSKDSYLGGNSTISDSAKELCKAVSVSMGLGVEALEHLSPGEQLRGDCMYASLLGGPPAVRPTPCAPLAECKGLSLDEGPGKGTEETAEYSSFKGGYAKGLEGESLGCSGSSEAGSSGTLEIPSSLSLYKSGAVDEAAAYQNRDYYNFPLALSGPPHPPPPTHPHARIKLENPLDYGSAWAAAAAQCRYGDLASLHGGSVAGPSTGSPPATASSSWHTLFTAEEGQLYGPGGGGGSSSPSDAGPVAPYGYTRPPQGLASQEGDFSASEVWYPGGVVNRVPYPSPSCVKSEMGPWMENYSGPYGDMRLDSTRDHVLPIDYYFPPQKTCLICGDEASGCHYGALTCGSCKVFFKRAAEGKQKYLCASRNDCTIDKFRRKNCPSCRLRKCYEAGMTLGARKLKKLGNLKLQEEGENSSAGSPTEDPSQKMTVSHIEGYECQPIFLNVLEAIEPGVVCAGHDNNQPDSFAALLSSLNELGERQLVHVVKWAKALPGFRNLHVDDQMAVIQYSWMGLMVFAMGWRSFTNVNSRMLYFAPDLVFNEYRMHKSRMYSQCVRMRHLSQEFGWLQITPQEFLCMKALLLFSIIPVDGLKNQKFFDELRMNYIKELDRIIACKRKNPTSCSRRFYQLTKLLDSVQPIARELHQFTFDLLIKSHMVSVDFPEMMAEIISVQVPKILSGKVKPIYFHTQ
Protocol: The binding to the cytosol androgen receptor was determined by the procedure of Fang (5) with modification. […] The amount of radioactivity in the nuclei is expressed as observed counts per minute per 100 μg DNA.

[4] = biological target: T1, Δ^5 -3-ketosteroid isomerase (EC 5.3.3.1); test: irreversible inactivation of crystalline purified bacterial Δ^5-3-ketosteroid isomerase by acetylenic steroids (Kitz and Wilson kinetic analysis); type: biochemical, Pseudomonas testosteroni; conditions: 24 hr at 4° vs. 1 mM potassium phosphate buffer, pH 7.0
[5] = 20mg per kilo per day, i.p. in propylene glycol

How did the “irreversible inhibition / inactivation of the enzyme” value ([1]; in words) turn out when `C[C@]12CC[C@@H]3C(=O)CCC(=O)CC#CC[C@H]3[C@@H]1CCC2=O` [Compound 1, 5,10-secoestr-5-yne-3,10,17-trione] was run?
Its value is “rapid irreversible inhibition; also recorded: rapid irreversible and complete inactivation of the enzyme; also recorded: Powerful irreversible inhibition”.

What about the “half-life of enzyme inactivation” value ([1]; pH 7.0, 20-200 μM of the two inhibitors, in 1,4-dioxane) of the same compound?
Its value is 150 to 1320 s.

And the kinact ([1]; pH 7, pseudo first order conditions, five inhibitor concentrations (10-fold range), read-out: k3, overall rate constant for the irreversible inhibition process)?
The kinact was 0.00198 s⁻¹.

And the pKi ([1]; pseudo first order conditions, five inhibitor concentrations (10-fold range), read-out: K1 (KI), inhibitor dissociation constant)?
The pKi was 4.25.

What about the “reduction in weight of the dorsal lateral prostate” value [2, 5] of the same compound?
Its value is 25-30%.

What about the “reduction in weight of the ventral prostate” value [2, 5] of the same compound?
The value was 28%.

What about the “reduction in weight of the ventral prostate” value ([2]; 20mg per kilo per day, i.p. in propylene glycol, listed as estryne) of the same compound?
The value was 25-30%.

And the “dose dependence of the effect on prostatic weight” value ([2]; 1-20 mg/kg, in words)?
Its value is “dose dependent”.

And the “effect on weight of the adrenal” value ([2]; in words)?
Its value is “no effect”.

What about the “effect on weight of the kidney” value ([2]; in words) of the same compound?
The value was “no effect”.

What about the “effect on weight of the seminal vesicles” value ([2]; in words) of the same compound?
Its value is “Only a modest decrease”.

And the “effect on weight of the testes” value ([2]; in words)?
The value was “no effect”.

What about the “effect on wet weight of the dorsal-lateral prostate” value ([2]; in words) of the same compound?
The value was “depresses the wet weight”.

What about the “effect on wet weight of the ventral prostate” value ([2]; in words) of the same compound?
Its value is “depresses the wet weight”.

What about the “Adrenal weight (± Sem)” value ([2]; estryne 1 mg/kg daily i.p.) of the same compound?
The value was 28 ± 2 mg.

And the “Dorsal Lateral Prostate weight (± Sem)” value ([2]; estryne 1 mg/kg daily i.p.)?
The value was 212 ± 19 mg.

What about the “Seminal Vesicles weight (± Sem)” value ([2]; estryne 1 mg/kg daily i.p.) of the same compound?
Its value is 380 ± 18 mg.

And the “Ventral Prostate weight (± Sem)” value ([2]; estryne 1 mg/kg daily i.p.)?
Its value is 435 ± 23 mg.

What about the “Kidney weight (± Sem)” value ([2]; estryne 1 mg/kg daily i.p.) of the same compound?
The value was 1320 ± 68 mg.

What about the “Testis weight (± Sem)” value ([2]; estryne 1 mg/kg daily i.p.) of the same compound?
Its value is 1650 ± 60 mg.

And the “Adrenal weight (± Sem)” value ([2]; estryne 5 mg/kg daily i.p.)?
The value was 26 ± 2 mg.

What about the “Dorsal Lateral Prostate weight (± Sem)” value ([2]; estryne 5 mg/kg daily i.p.) of the same compound?
The value was 195 ± 8 mg.

And the “Seminal Vesicles weight (± Sem)” value ([2]; estryne 5 mg/kg daily i.p.)?
Its value is 368 ± 16 mg.

And the “Ventral Prostate weight (± Sem)” value ([2]; estryne 5 mg/kg daily i.p.)?
Its value is 385 ± 8 mg.

And the “Kidney weight (± Sem)” value ([2]; estryne 5 mg/kg daily i.p.)?
Its value is 1090 ± 39 mg.

What about the “Testis weight (± Sem)” value ([2]; estryne 5 mg/kg daily i.p.) of the same compound?
The value was 1590 ± 54 mg.

And the “Adrenal weight (± Sem)” value ([2]; estryne 10 mg/kg daily i.p.)?
The value was 30 ± 2 mg.

And the “Dorsal Lateral Prostate weight (± Sem)” value ([2]; estryne 10 mg/kg daily i.p.)?
Its value is 188 ± 6 mg.

What about the “Seminal Vesicles weight (± Sem)” value ([2]; estryne 10 mg/kg daily i.p.) of the same compound?
Its value is 387 ± 14 mg.

And the “Ventral Prostate weight (± Sem)” value ([2]; estryne 10 mg/kg daily i.p.)?
The value was 364 ± 25 mg.

What about the “Kidney weight (± Sem)” value ([2]; estryne 10 mg/kg daily i.p.) of the same compound?
The value was 1150 ± 42 mg.

And the “Testis weight (± Sem)” value ([2]; estryne 10 mg/kg daily i.p.)?
The value was 1580 ± 59 mg.

And the “Adrenal weight (± Sem)” value ([2]; estryne 20 mg/kg daily i.p.)?
Its value is 30 ± 3 mg.

And the “Dorsal Lateral Prostate weight (± Sem)” value ([2]; estryne 20 mg/kg daily i.p.)?
Its value is 177 ± 15 mg.

What about the “Seminal Vesicles weight (± Sem)” value ([2]; estryne 20 mg/kg daily i.p.) of the same compound?
Its value is 309 ± 23 mg.

And the “Ventral Prostate weight (± Sem)” value ([2]; estryne 20 mg/kg daily i.p.)?
Its value is 302 ± 28 mg.

What about the “Kidney weight (± Sem)” value ([2]; estryne 20 mg/kg daily i.p.) of the same compound?
Its value is 1040 ± 35 mg.

What about the “Testis weight (± Sem)” value ([2]; estryne 20 mg/kg daily i.p.) of the same compound?
Its value is 1420 ± 64 mg.

What about the “inhibition of nuclear uptake of ^3H-dihydrotestosterone” value ([3]; 2 × 10^-6 M with ^3H-DHT 2 × 10^-9 M) of the same compound?
The value was “approximately 50%”.

And the remaining activity at 2 µM ([3]; rat, 1 h, pH 7.4, steroid 2 × 10^-6 M with ^3H-DHT 2 × 10^-9 M, read-out: nuclear uptake of ^3H-DHT, % Control)?
Its remaining activity at 2 µM is 56%.

What about the “CPM/100 DNA (nuclear uptake of ^3H-DHT)” value ([3]; steroid 2 × 10^-6 M with ^3H-DHT 2 × 10^-9 M, control 8,471) of the same compound?
Its value is 4,771 CPM/100 DNA.

What about the “restoration of enzymatic activity by prolonged dialysis” value [4] of the same compound?
Its value is “inability to restore enzymatic activity”.
